Experimental data published in US20140128385A1 (NOVARTIS AG, priority 2011, published 2014).
Where a name gives a salt, the structure may show the parent alone.

Molecular target: T1, BACE-2 (Homo sapiens, UniProt Q9Y5Z0)
T1 construct: Recombinant BACE-2 (extracellular domain, expressed in baculovirus and purified using standard methods); made in house
T1 sequence (Q9Y5Z0 63-473 limits assumed): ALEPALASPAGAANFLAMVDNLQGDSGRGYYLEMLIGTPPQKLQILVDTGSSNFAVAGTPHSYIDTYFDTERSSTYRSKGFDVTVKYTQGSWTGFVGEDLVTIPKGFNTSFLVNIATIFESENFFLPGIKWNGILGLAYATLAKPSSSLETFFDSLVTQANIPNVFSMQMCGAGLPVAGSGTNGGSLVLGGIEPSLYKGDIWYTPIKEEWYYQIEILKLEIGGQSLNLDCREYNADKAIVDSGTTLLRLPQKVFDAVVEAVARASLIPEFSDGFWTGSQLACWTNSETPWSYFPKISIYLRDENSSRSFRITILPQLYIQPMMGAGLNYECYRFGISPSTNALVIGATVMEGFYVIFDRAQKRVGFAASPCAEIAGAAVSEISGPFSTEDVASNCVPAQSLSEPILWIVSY
Assay: assay for inhibition of BACE-2
Assay type: biochemical

## 5-Bromo-pyridine-2-carboxylic acid[3-((S)-3-amino-5-difluoromethyl-2,5,6,7-tetrahydro-[1,4]oxazepin-5-yl)-4-fluoro-phenyl]-amide hydrochloride [Example 96]
  IC50: 44 nM

## CCC1C(N)=NC(C)(c2cccc(NC(=O)c3ccc(Br)cn3)c2)C(=O)N1C (mixture of isomers) [Example 200, 5-Bromo-pyridine-2-carboxylic acid [3-(6-amino-5-ethyl-2,4-dimethyl-3-oxo-2,3,4,5-tetrahydro-pyrazin-2-yl)-phenyl]-amide]
  IC50: 1250 nM

## Cc1cc(C#N)cnc1C(=O)Nc1ccc(F)c(C2(C)COC(CF)(CF)C(N)=N2)c1 (racemic) [Example 251, 5-Cyano-3-methyl-pyridine-2-carboxylic acid [3-(5-amino-6,6-bis-fluoromethyl-3-methyl-3,6-dihydro-2H-[1,4]oxazin-3-yl)-4-fluoro-phenyl]-amide]
  IC50: 41 nM

## CC1(c2cccc(NC(=O)c3ccc(Br)cn3)n2)COCC(N)=N1 (racemic) [Example 258, 5-Bromo-pyridine-2-carboxylic acid [6-(5-amino-3-methyl-3,6-dihydro-2H-[1,4]-oxazin-3-yl)-pyridin-2-yl]-amide]
  IC50: 363 nM

## C[C@@]1(c2cccc(NC(=O)c3ccc(Br)cn3)c2)CO[C@@](C)(C(F)(F)F)C(N)=N1 (relative stereo) [Example 66, 5-Bromo-pyridine-2-carboxylic acid [3-((3R*,6R*)-5-amino-3,6-dimethyl-6-trifluoromethyl-3,6-dihydro-2H-[1,4]oxazin-3-yl)-phenyl]-amide hydrochloride]
  IC50: 6 nM

## C[C@H]1OC[C@](c2cc(NC(=O)c3ccc(C#N)cn3)ccc2F)(C(F)F)N=C1N (relative stereo) [Example 75, 5-Cyano-pyridine-2-carboxylic acid [3-((3R*,6R*)-5-amino-3-difluoromethyl-6-methyl-3,6-dihydro-2H-[1,4]oxazin-3-yl)-4-fluoro-phenyl]-amide hydrochloride]
  IC50: 355 nM

## C[C@@H]1OC[C@](c2cc(NC(=O)c3ccc(C#N)cn3)ccc2F)(C(F)F)N=C1N (relative stereo) [Example 76, 5-Cyano-pyridine-2-carboxylic acid [3-((3R*,6S*)-5-amino-3-difluoromethyl-6-methyl-3,6-dihydro-2H-[1,4]oxazin-3-yl)-4-fluoro-phenyl]-amide hydrochloride]
  IC50: 175 nM

## C[C@H]1OC[C@](c2cc(NC(=O)c3ccc(Br)cn3)ccc2F)(C(F)F)N=C1N (relative stereo) [Example 77, 5-Bromo-pyridine-2-carboxylic acid [3-((3R*,6R*)-5-amino-3-difluoromethyl-6-methyl-3,6-dihydro-2H-[1,4]oxazin-3-yl)-4-fluoro-phenyl]-amide hydrochloride]
  IC50: 42 nM

## C[C@@H]1OC[C@](c2cc(NC(=O)c3ccc(Br)cn3)ccc2F)(C(F)F)N=C1N (relative stereo) [Example 78, 5-Bromo-pyridine-2-carboxylic acid [3-((3R*,6S*)-5-amino-3-difluoromethyl-6-methyl-3,6-dihydro-2H-[1,4]oxazin-3-yl)-4-fluoro-phenyl]-amide hydrochloride]
  IC50: 22 nM

## Cc1cc(OC(F)F)cnc1C(=O)Nc1ccc(F)c([C@]2(C(F)F)CNCC(N)=N2)c1 (single isomer, unassigned) [Example 212]
  IC50: 116 nM

## COc1cnc(C(=O)Nc2ccc(F)c([C@]3(C(F)F)CNCC(N)=N3)c2)c(N)n1 (single isomer, unassigned) [Example 213]
  IC50: 115 nM

## Cc1cc(C#N)cnc1C(=O)Nc1ccc(F)c([C@]2(C)COC(CF)(CF)C(N)=N2)c1 (single isomer, unassigned) [Example 252]
  IC50: 33 nM

## CC1(c2cccc(NC(=O)c3ccco3)c2)COCC(N)=N1 (centres unmarked) [Example 1, Furan-2-carboxylic acid [3-(5-amino-3-methyl-3,6-dihydro-2H-[1,4]oxazin-3-yl)-phenyl]-amide hydrochloride]
  IC50: 61 nM

## CC1(c2cccc(NC(=O)c3ccc(Br)cn3)c2)COCC(N)=N1 (centres unmarked) [Example 2, 5-Bromo-pyridine-2-carboxylic acid [3-(5-amino-3-methyl-3,6-dihydro-2H-[1,4]oxazin-3-yl)-phenyl]-amide hydrochloride]
  IC50: 87 nM

## C[C@@]1(c2cccc(NC(=O)c3ccc(Br)cn3)c2)COCC(N)=N1 [Example 3, 5-Bromo-pyridine-2-carboxylic acid [3-((R)-5-amino-3-methyl-3,6-dihydro-2H-[1,4]oxazin-3-yl)-phenyl]-amide hydrochloride]
  IC50: 56 nM

## C[C@]1(c2cccc(NC(=O)c3ccc(Br)cn3)c2)COCC(N)=N1 [Example 4, 5-Bromo-pyridine-2-carboxylic acid [3-((S)-5-amino-3-methyl-3,6-dihydro-2H-[1,4]oxazin-3-yl)-phenyl]-amide hydrochloride]
  IC50: > 10000 nM

## Cc1nc(C(=O)Nc2cccc(C3(C)COCC(N)=N3)c2)co1 (centres unmarked) [Example 5, 2-Methyl-oxazole-4-carboxylic acid [3-(5-amino-3-methyl-3,6-dihydro-2H-[1,4]oxazin-3-yl)-phenyl]-amide hydrochloride]
  IC50: 373 nM

## Cc1cnc(C(=O)Nc2cccc(C3(C)COCC(N)=N3)c2)cn1 (centres unmarked) [Example 6, 5-Methyl-pyrazine-2-carboxylic acid [3-(5-amino-3-methyl-3,6-dihydro-2H-[1,4]oxazin-3-yl)-phenyl]-amide hydrochloride]
  IC50: 3440 nM

## CC1(c2cccc(NC(=O)c3ncc(Br)cn3)c2)COCC(N)=N1 (centres unmarked) [Example 7, 5-Bromo-pyrimidine-2-carboxylic acid [3-(5-amino-3-methyl-3,6-dihydro-2H-[1,4]oxazin-3-yl)-phenyl]-amide hydrochloride]
  IC50: 309 nM

## CC1(c2cccc(NC(=O)c3cn4ccccc4n3)c2)COCC(N)=N1 (centres unmarked) [Example 8, Imidazo[1,2-a]pyridine-2-carboxylic acid [3-(5-amino-3-methyl-3,6-dihydro-2H-[1,4]oxazin-3-yl)-phenyl]-amide hydrochloride]
  IC50: 7230 nM

## CC1(c2cccc(NC(=O)c3ncccc3F)c2)COCC(N)=N1 (centres unmarked) [Example 9, 3-Fluoro-pyridine-2-carboxylic acid [3-(5-amino-3-methyl-3,6-dihydro-2H-[1,4]oxazin-3-yl)-phenyl]-amide hydrochloride]
  IC50: 663 nM

## Cc1nc(C(=O)Nc2cccc(C3(C)COCC(N)=N3)c2)c(C)o1 (centres unmarked) [Example 10, 2,5-Dimethyl-oxazole-4-carboxylic acid [3-(5-amino-3-methyl-3,6-dihydro-2H-[1,4]oxazin-3-yl)-phenyl]-amide hydrochloride]
  IC50: 289 nM

## Cc1nc(C(=O)Nc2cccc(C3(C)COCC(N)=N3)c2)cs1 (centres unmarked) [Example 11, 2-Methyl-thiazole-4-carboxylic acid [3-(5-amino-3-methyl-3,6-dihydro-2H-[1,4]oxazin-3-yl)-phenyl]-amide hydrochloride]
  IC50: 1060 nM

## CC1(c2cccc(NC(=O)c3ccc(O)nn3)c2)COCC(N)=N1 (centres unmarked) [Example 12, 6-Hydroxy-pyridazine-3-carboxylic acid [3-(5-amino-3-methyl-3,6-dihydro-2H-[1,4]oxazin-3-yl)-phenyl]-amide hydrochloride]
  IC50: 2260 nM

## CC1(c2cccc(NC(=O)c3ccccn3)c2)COCC(N)=N1 (centres unmarked) [Example 13, Pyridine-2-carboxylic acid [3-(5-amino-3-methyl-3,6-dihydro-2H-[1,4]oxazin-3-yl)-phenyl]-amide hydrochloride]
  IC50: 431 nM

## CC1(c2cccc(NC(=O)c3ccc(C#N)cn3)c2)COCC(N)=N1 (centres unmarked) [Example 14, 5-Cyano-pyridine-2-carboxylic acid [3-(5-amino-3-methyl-3,6-dihydro-2H-[1,4]oxazin-3-yl)-phenyl]-amide hydrochloride]
  IC50: 335 nM

## CC1(c2cccc(NC(=O)c3cnc(-n4ccc(C(F)(F)F)n4)cn3)c2)COCC(N)=N1 (centres unmarked) [Example 15, 5-(3-Trifluoromethyl-pyrazol-1-yl)-pyrazine-2-carboxylic acid [3-(5-amino-3-methyl-3,6-dihydro-2H-[1,4]oxazin-3-yl)-phenyl]-amide hydrochloride]
  IC50: 6590 nM

## CC1(c2cccc(NC(=O)c3ncc(C(F)(F)F)cc3Cl)c2)COCC(N)=N1 (centres unmarked) [Example 17, 3-Chloro-5-trifluoromethyl-pyridine-2-carboxylic acid [3-(5-amino-3-methyl-3,6-dihydro-2H-[1,4]oxazin-3-yl)-phenyl]-amide hydrochloride]
  IC50: 694 nM

## COc1cnc(C(=O)Nc2cccc(C3(C)COCC(N)=N3)c2)cn1 (centres unmarked) [Example 18, 5-Methoxy-pyrazine-2-carboxylic acid [3-(5-amino-3-methyl-3,6-dihydro-2H-[1,4]oxazin-3-yl)-phenyl]-amide hydrochloride]
  IC50: 1660 nM

## CC1(c2cccc(NC(=O)c3cnc(O)cn3)c2)COCC(N)=N1 (centres unmarked) [Example 19]
  IC50: 3180 nM

## CC1(c2cccc(NC(=O)c3cc(Br)co3)c2)COCC(N)=N1 (centres unmarked) [Example 20, 4-Bromo-furan-2-carboxylic acid [3-(5-amino-3-methyl-3,6-dihydro-2H-[1,4]oxazin-3-yl)-phenyl]-amide hydrochloride]
  IC50: 226 nM

## CC1(c2cccc(NC(=O)c3ccc(C(F)(F)F)cn3)c2)COCC(N)=N1 (centres unmarked) [Example 22, 5-Trifluoromethyl-pyridine-2-carboxylic acid [3-(5-amino-3-methyl-3,6-dihydro-2H-[1,4]oxazin-3-yl)-phenyl]-amide hydrochloride]
  IC50: 1500 nM
